Laboratory results from the NIST ThermoML archive (doi:10.1016/j.jct.2017.03.006).

Assay: xn = mol fraction of the nth substance listed
Details: Liquid; for mass density: 313.15 K, Vibrating tube method; for viscosity: 323.15 K, 100 kPa, Concentric cylinders viscometry

Cc1ccc(C)c(C)c1 [1,2,4-trimethylbenzene] + CCCCO
mass density [kg/m3]
Details | x2 = 0 | x2 = 0.1005 | x2 = 0.2261 | x2 = 0.2999 | x2 = 0.3966 | x2 = 0.5289 | x2 = 0.6367 | x2 = 0.7249 | x2 = 0.7977 | x2 = 0.9131
50000 kPa | – | – | – | – | – | – | 855.3 | 849.4 | 844 | 835
60000 kPa | 895 | 890.2 | 883.9 | 880.2 | 875 | 867.4 | 860.6 | 854.7 | 849.3 | 840.3
70000 kPa | 899.9 | 895.2 | 888.9 | 885.2 | 880 | 872.5 | 865.6 | 859.8 | 854.4 | 845.4
80000 kPa | 904.6 | 899.9 | 893.7 | 890.1 | 884.8 | 877.3 | 870.5 | 864.6 | 859.3 | 850.3
90000 kPa | 909 | 904.4 | 898.1 | 894.5 | 889.2 | 881.9 | 875.1 | 869.1 | 863.8 | 854.8
100000 kPa | 913.3 | 908.7 | 902.5 | 898.8 | 893.6 | 886.2 | 879.4 | 873.5 | 868.2 | 859.2
120000 kPa | 921.4 | 916.9 | 910.7 | 907.1 | 901.9 | 894.5 | 887.7 | 881.8 | 876.5 | 867.5
140000 kPa | 928.9 | 924.3 | 918.7 | 914.5 | 909.6 | 902.2 | 895.5 | 889.6 | 884.4 | 875.3

Details | viscosity [mPa·s]
x2 = 0 | 0.62
x2 = 0.1002 | 0.615
x2 = 0.2327 | 0.631
x2 = 0.3 | 0.653
x2 = 0.3969 | 0.683
x2 = 0.53 | 0.754
x2 = 0.637 | 0.835
